Experimental data as given in PubChem BioAssay (NCI).
“And” between values parts separate entries of the source, which are not always exact repeats. Identical values can stand only once.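 A five-concentration, 48-hour dose response in 96-well plates underlies each endpoint, interpolated linearly between surrounding concentrations. GI50 = concentration required for 50% inhibition of growth. TGI denotes the concentration required for complete inhibition of growth.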

Legend:
Assay in all cases: DTP human tumour cell line panel, 48 h
T-47D breast = tested on: T-47D breast
SR leukemia = tested on: SR leukemia
HT29 colon = tested on: HT29 colon
RXF 393 renal = tested on: RXF 393 renal
SK-MEL-28 melanoma = tested on: SK-MEL-28 melanoma
MDA-MB-231 breast = tested on: MDA-MB-231 breast
A498 renal = tested on: A498 renal
KM12 colon = tested on: KM12 colon
HS 578T breast = tested on: HS 578T breast
MCF7 breast = tested on: MCF7 breast

SMILES | TGI (T-47D breast) [µM] | TGI (SR leukemia) [µM] | TGI (HT29 colon) [µM] | TGI (RXF 393 renal) [µM] | TGI (SK-MEL-28 melanoma) [µM] | GI50 (MDA-MB-231 breast) [µM] | TGI (MDA-MB-231 breast) [µM] | TGI (A498 renal) [µM] | TGI (KM12 colon) [µM] | GI50 (HS 578T breast) | TGI (MCF7 breast) [µM] | GI50 (T-47D breast) [µM] | GI50 (SR leukemia) [µM] | GI50 (HT29 colon) [µM] | GI50 (RXF 393 renal) [µM] | GI50 (SK-MEL-28 melanoma) [µM] | GI50 (A498 renal) [µM] | GI50 (KM12 colon) [µM] | TGI (HS 578T breast) [µM] | GI50 (MCF7 breast) [µM]
COc1cc(NCc2ccc3nc(N)nc(N)c3c2C)cc(OC)c1OC (tested in a mixture with another compound) | 65.7 | > 44.4 | 41.9 | 27.5 | 50.6 | 0.0893 | 55.2 | 49.5 | 46.6 | 29 µM and 8.3 µM | 28.7 | – | – | – | – | – | – | – | – | –
COc1ccc(-c2nc3ccc(-c4nc5ccc(N6CCN(c7ccccc7)CC6)cc5[nH]4)cc3[nH]2)cc1OC | 5.19 | 2.83 | 2.68 | 3.41 | 3.24 | 2.48 | 5.05 | 9.63 | 4.01 | 2.25 µM | 0.649 | 1.68 | 0.341 | 1.2 | 1.59 | 1.66 | 2.93 | 1.84 | 4.93 | 0.138
COc1c(OC[C@H](O)CN2CCOCC2)ccc2c3n(c(=NC(=O)c4cccnc4C)nc12)CCN3 | 0.361 | > 50 | > 50 | 2.38 | > 50 | > 50 | > 50 | 1.85 | > 50 | 0.15 µM | > 50 | 0.0315 | > 50 | 0.217 | 0.192 | 0.465 | 0.167 | 40.7 | > 50 | 0.0751
CNCC#Cc1c(F)ccc2c1/C(=C/c1[nH]ccc1OC)C(=O)N2 | 4.36 | 0.513 | 1.82 | 0.147 | 2.88 | 0.416 | 2.18 | 1.41 | 2.41 | 0.195 µM | 3.04 | 0.671 | 0.0715 | 0.133 | 0.0454 | 0.329 | 0.179 | 0.0565 | 3.68 | 0.21
COc1ccc2[nH]cc(C3(c4c[nH]c5ccc(OC)cc45)C(=O)Nc4ccc(F)cc43)c2c1 | 14.9 | 4.97 | 6.14 | 6.54 | 6.75 | 1.57 | 3.56 | 12 | 6.96 | 3.13 µM | 10.1 | 3.04 | 2.03 | 2.44 | 2.31 | 2.29 | 2.56 | 2.58 | 14.8 | 2.72
Cc1ncc(C(=O)Nc2ccc(CN3CCN(C)CC3)c(C(F)(F)F)c2)cc1C#Cc1cnc(N)c2ccncc12 | 5.88 | 29.8 | 2.26 | 1.87 | 2.82 | 0.526 | 2.02 | 2.92 | 1.82 | 0.984 µM | 2.9 | 1.91 | 2.33 | 0.432 | 0.647 | 1.27 | 1.35 | 0.441 | 4.65 | 1.35
Cc1nn(-c2ccc(Cl)cc2)c2nc3c(nc12)C(=O)c1ccccc1-3 | 65.6 | > 100 | > 100 | > 100 | > 100 | 82.7 | > 100 | > 100 | > 100 | 15.7 µM | > 100 | 17.4 | > 100 | > 100 | > 100 | > 100 | 31.7 | > 100 | > 100 | 51.9
COc1ccc(C(=O)/C=C/c2cc(-c3cc(OC)c(OC)c(OC)c3)n[nH]2)cc1OC | 4.36 | > 100 | 3.05 | 2.66 | 3.34 | 1.48 | 3.06 | 2.98 | 2.41 | 2.57 µM | 1.95 | 1.63 | 0.278 | 1.62 | 1.35 | 1.78 | 1.48 | 1.07 | 8.2 | 0.482
CCSc1ncnc2c1ncn2C1OC(CO)C(O)C1O (stereo not drawn) | > 48.9 | > 100 | > 100 | > 90.2 | > 100 | 0.745 | > 100 | 1.92 | > 100 | 0.975 µM | > 91.2 | 1.69 | 25.3 | 0.229 | 16 | > 48.3 | 0.081 | 0.702 | 34 | 0.288
Cn1cc(C2=C(c3cn(CCCCO)c4ccccc34)C(=O)NC2=O)c2ccccc21 | 24.8 | 21.4 | > 25 | 10.8 | > 25 | 17.2 | > 25 | 22.2 | > 23 | 4.87 µM | > 25 | 9.64 | 6.05 | 8.3 | 3.92 | 12.6 | 6.32 | 7.09 | > 25 | 4.45
Cc1ccc(NC(=O)CC2CC2)cc1-c1ccc(C(=O)NCC2CC2)cc1 | > 25 | > 25 | > 25 | > 25 | > 25 | > 25 | > 25 | > 25 | > 25 | > 25 µM | > 25 | > 17.3 | 13.5 | > 25 | > 25 | > 25 | > 25 | > 25 | > 25 | > 25
O=C1OCC2=C1C(c1cccc(Br)c1)c1cc3c(cc1N2CCO)CCC3 (stereo not drawn) | 17.9 | 22.2 | 1.3 | 1.61 | 10.3 | 0.191 | 1.22 | 0.199 | 1.04 | 0.151 µM | 9.66 | 2.37 | 0.185 | 0.109 | 0.0263 | 0.0564 | 0.0155 | 0.0329 | 11.4 | 0.0257
Clc1ccc2[nH]cc(-c3nnnn3-c3ccccc3)c2c1 | > 100 | > 38.9 | > 70.9 | > 100 | > 100 | 33.8 | > 100 | 36.8 | 19 | 15.4 µM | > 100 | > 45.3 | 4.4 | 11.9 | 32.2 | 14.3 | 8.39 | 2.99 | > 60.8 | 29.8
CCOC(=O)Nc1ccc(C)c(NC(=O)OCC)c1 | > 100 | > 100 | > 100 | > 100 | > 100 | – | > 100 | > 100 | > 100 | – | > 100 | – | – | – | – | – | – | – | > 100 | –
C[C@@H]1CC[C@@H]2[C@@H]1[C@H](OC(=O)/C=C/c1ccccc1)[C@]1(C3CCCCC3)C[C@@H](OC(=O)CO)[C@@]2(C)O1 | 10.7 | 6.9 | 8.05 | 3.16 | 15.1 | 2.47 | 6.61 | 0.0572 | 10.8 | 0.0237 µM | 10.8 | 2.64 | 2.6 | 2.89 | 0.0779 | 3.59 | 0.0191 | 3.1 | 0.0978 | 2.58
CCOC(=O)C(Cc1ccc(CCCC(=O)NCCC(=O)Nc2ccc3nc(C)sc3c2)cc1)C(=O)OCC | 74.1 | > 100 | > 100 | > 100 | > 96.7 | 52.5 | > 100 | > 100 | > 100 | 68.3 µM | 64.3 | 19.7 | 50.8 | > 64.2 | 36.4 | 28.7 | > 100 | 33.4 | > 100 | 22.2
COc1cc(NS(C)(=O)=O)ccc1Nc1c2ccccc2nc2c1[nH]c1ccc(NC3OC(CO)C(O)C(O)C3O)cc12 (stereo not drawn) | 15.7 | > 100 | 0.938 | 0.61 | 1.96 | – | 8.11 | 0.881 | 1.21 | – | 10.1 | – | – | – | – | – | – | – | 4.29 | –
O=C(O)Cc1cc(Cl)ccc1O | > 100 | > 100 | > 100 | > 100 | > 100 | – | > 100 | > 100 | > 100 | – | > 100 | – | – | – | – | – | – | – | > 100 | –
CN1C(=O)N(C)C2C1NN=c1s/c(=C\c3ccc(Cl)cc3Cl)c(=O)n12 (stereo not drawn) | > 100 | > 100 | > 100 | 0.925 | > 94.6 | 0.479 | 19.6 | 0.653 | > 75.4 | 0.173 µM | > 48.3 | 0.0576 | 0.0557 | 0.117 | 0.0862 | 4.26 | 0.067 | 0.134 | > 92.6 | 0.045
Cc1c2c(C#N)nccc2c(C)c2c1c1ccccc1n2Cc1ccccc1 | > 100 | > 100 | > 100 | > 100 | > 100 | – | > 100 | – | > 100 | – | > 100 | – | – | – | – | – | – | – | > 100 | –
CS(=O)(=O)CCNCc1nc(-c2ccc3ncnc(Nc4ccc(OCc5cccc(C(F)(F)F)c5)cc4)c3c2)cs1 | > 25 | > 25 | > 25 | > 25 | > 25 | 12.6 | > 25 | > 25 | > 25 | 9.11 µM | > 25 | 5.42 | > 22.2 | > 17.6 | 5.57 | > 20.6 | 4.1 | > 25 | > 25 | > 17.5
CCOC(=O)Nc1ccc(-c2nc(-c3cccc(OCCN4CCOCC4)c3)c(-c3ccnc(Br)c3)[nH]2)cc1 | > 100 | > 100 | > 100 | – | 3.75 | 3.79 | > 100 | 5.66 | > 100 | 1.55 µM | 4.27 | 2.74 | 2.74 | 2.9 | – | 1.78 | 1.66 | 3.19 | 4.91 | 1.62
NCCNc1c2c(c(NCCN)c3[nH]ccc13)C(=O)c1ccccc1C2=O | > 100 | 0.334 | 0.634 | 0.525 | 1.8 | 0.109 | 0.605 | 0.565 | 0.957 | 0.012 µM | 0.323 | 1.63 | 0.0527 | 0.0527 | 0.0488 | 0.439 | 0.231 | 0.191 | 0.219 | 0.029
COc1cc(-c2cc(-c3cc4c([nH]c5ccccc54)c(-c4cc(OC)c(OC)c(OC)c4)n3)cc(-c3ccccc3)n2)cc(OC)c1OC | 35.4 | > 100 | 25.5 | 12.2 | 30.2 | 3.59 | > 100 | 7.96 | > 100 | 6.09 µM | 20.8 | 2.8 | 3.56 | 4.03 | 2.7 | 4.3 | 1.64 | 4.09 | > 100 | 3.56
CN(C)C(n1cc2c(c1)-c1ccc(Cl)cc1C(c1ccccc1F)=NC2)n1cc2c(c1)-c1ccc(Cl)cc1C(c1ccccc1F)=NC2 | > 100 | > 100 | > 100 | 66.6 | > 100 | – | > 100 | > 100 | – | – | > 100 | – | – | – | – | – | – | – | > 100 | –
COc1cc2c(cc1OCCCNC(=O)c1cccc3c(=O)c4ccccc4[nH]c13)N=C[C@@H]1CCCN1C2=O | 29.6 | > 45.4 | > 56.3 | 0.301 | 2.89 | < 0.01 | < 0.0484 | 0.0225 | 13.2 | < 0.01 µM | 13.8 | < 0.01 | – | – | 0.0865 | < 0.01 | < 0.01 | – | 0.121 | < 0.0242
Oc1cccnc1[Se] | > 100 | > 100 | > 100 | > 100 | > 100 | – | > 100 | – | > 100 | – | > 100 | – | – | – | – | – | – | – | > 100 | –
